Experiments:
Langerhans cells = experiment: FITC Langerhans cell migration screening, draining inguinal lymph node, flow cytometry; format: in vivo, C57BL/6 mice; conditions: for Total MHC class II^th cells, distance from the positive control, dibutylphthalate (DBP): 5 mg/ml FITC in acetone and migration inducer, 100 µl, after 2 days, Figure 7; for FITC+ Langerhans cell number / total dendritic cell migration into the lymph node / nonspecific immigration: agent added to topical FITC in acetone, 2 days after treatment, Figure 1
Excerpt: Fluorescein isothiocyanate (FITC) has been used extensively by the inventor and others, to characterize Langerhans cell migration. FITC is a small (mw 389) non-peptide, largely lipophilic molecule, capable of crossing the stratum corneum. Immunogenicity of FITC is due to the reactivity of its isothiocyanate group (-N-C-S) with free amino groups, permitting it to be covalently bound to proteins and/or peptides. C57BL/6 mice received the following treatments: 1) none; 2) abdomen shaving only; 3) topical administration of FITC in acetone; 4) topical administration of FITC in acetone and olive oil; 5) topical administration of FITC in acetone and DMSO diluted in phosphate buffered saline (PBS); and 6) topical administration of FITC in acetone and dibutylphthalate. The draining inguinal lymph nodes were then examined for immigrant Langerhans cells by immunofluorescent flow cytometry each day thereafter. Migratory Langerhans cells were identified by the presence of FITC and expression of high MHC class II molecules or by a Langerhans cell-specific monoclonal antibody (NLDC-145). Other dendritic cell residents of the lymph nodes could also be differentiated using a dendritic cell-specific monoclonal antibody, 33D1. The uptake of FITC and the Langerhans cell response to migratory signals were observable in the draining lymph node as early as six hours after topical administration. However, 48-72 hours was required for maximal rate of immigration into the lymph node. Figure 1 illustrates the effect of the various treatment regimens on total and FITC + lymphoid dendritic cells 2 days after treatment. […] Thus, dibutylphthalate was a very potent migration inducer.
High numbers of FITC+ Langerhans cells were present in the lymph node by 12 hours and the peak frequency of immigrant FITC+ Langerhans cells occurred about 2 to 3 days following topical administration. […] The unlabeled dendritic cells were most likely Langerhans cells that had lost the FITC label. Five days after skin painting, the lymph node cell population had increased by approximately 7.2 fold over baseline levels.
Compounds which are useful as inducers of Langerhans cell migration may be screened using the standard FITC methods described for the data presented in Figures 1-3. C57BL6 mice are shaved on their abdomens and painted with 100 µl test solution, containing 5 mg/ml FITC in a 50150 (v/v) mixture of acetone and the migration inducer (e.g. dibutylphthalate). After 2 days, the draining inguinal lymph node is removed and the total number of dendritic cells (both FITC+ and FITC-) is determined by flow cytometry and MHC class II immunoassay.

EG7-OVA cells = experiment: Tumor-specific immunity after topical vaccination, subcutaneous tumor challenge, tumor size; format: in vivo, C57BL/6; conditions: for inhibiting tumor cell growth: Figure 4
Method: (§1) The C57BL/6 thymoma tumor cell line, EL4, was transfected with the complete gene for chicken ovalbumin (OVA). The resulting transfected cell line, EG7-OVA, expresses chicken ovalbumin. […] Based on the positive results using FITC, the inventors followed a similar protocol in an attempt to induce immunity to the EG7-OVA tumor by topical administration of the well-characterized, synthetic […] tumor-associated peptide.
C57BU6 mice were treated as follows: 1) shaving alone; 2) topical administration of acetone and dibutylphthalate; 3) […] (240 :g/ml) in DMSO diluted in PBS, followed in 5 hours by acetone and dibutylphthalate; and 4) […] (240 :g/ml) in acetone and dibutylphthalate. All mice were subsequently injected subcutaneously with 5 × 10^5 EG7-OVA cells (5-times the minimal tumorogenic dose). Tumor-specific immunity was monitored by measuring tumor size.
(§2) The mucous membranes lack the tough barrier posed by the stratum corneum. […] The EL4 parent tumor cell line, lacking chicken ovalbumin, was used as a […]; no immunity against the EL4 tumor cells was seen. Thus, the inventors' hypothesis regarding penetration of the stratum corneum was confirmed; the […] peptide was not reaching the Langerhans cells underlying the stratum corneum.
While intravaginal topical administration of tumor antigen provided an effective means of routing antigen to the Langerhans cells for subsequent induction of tumor-specific immunity, mucous membrane application sites, like the vagina, are not well-suited for convenient use and monitoring by general practitioners likely to be involved in administering the topical vaccinations of the present invention. Thus, to enhance the effectiveness of cutaneous topical administration, […] was dissolved in DMSO and applied to the skin without dilution. Dibutylphthalate in acetone was applied to the same site 5 hr later. All mice were subsequently injected subcutaneously with 5 x 10^5 EG7-OVA cells. The results shown in Figure 6 indicate that the peptide in DMSO was able to traverse the stratum corneum, effectively gaining access to the Langerhans cells. Tumor growth was suppressed after 6 to 9 days and even the established tumors were completely eliminated by 16 days post-inoculation. Thus, the tumor specific peptide, […], in concentrated DMSO, penetrated the stratum corneum, was incorporated into the MHC class I molecule K^b on epidermal Langerhans cells, and in the presence of the migration inducer, dibutylphthalate, was effectively presented to CD8+ CTLs in the lymph nodes.

[1] = iontophoresis; cited from earlier work
EL4 tumor cells = experiment: Specificity control of intravaginal topical vaccination, parent tumor challenge; format: in vivo, C57BL/6; conditions: intravaginal topical application, SIINFEKL in acetone and dibutylphthalate; Figure 5
Excerpt: as §1, §2

Compound: CCCCOC(=O)[C@@H](O)[C@H](O)C(=O)OCCCC [DBT, dibutyl-D-tartrate]
- Total MHC class II^th cells, distance from the positive control, dibutylphthalate (DBP) (Langerhans cells): ≤ 1 standard deviation

Compound: dibenzylbutylphthalate [DBBP]
- Total MHC class II^th cells, distance from the positive control, dibutylphthalate (DBP) (Langerhans cells): ≤ 1 standard deviation

Compound: CCCCOC(=O)c1ccccc1C(=O)OCCCC [dibutylphthalate]
- FITC+ Langerhans cell number (Langerhans cells): striking effect
- total dendritic cell migration into the lymph node / nonspecific immigration (Langerhans cells): striking effect
- inhibiting tumor cell growth (EG7-OVA cells; cutaneous topical acetone and dibutylphthalate without peptide, 5 × 10^5 EG7-OVA cells s.c.): none of the treatment protocols were effective

Compound: NC(=O)CC[C@@H]1NC(=O)[C@H](Cc2ccccc2)NC(=O)[C@H](Cc2ccc(O)cc2)NC(=O)[C@@H](N)CSSC[C@@H](C(=O)N2CCC[C@H]2C(=O)N[C@@H](CCCN=C(N)N)C(=O)NCC(N)=O)NC(=O)[C@H](CC(N)=O)NC1=O [vassopressin]
- fraction that crossed the stratum corneum [1]: about 0.4 % per hour

Compound: C[S+](C)[O-] [DMSO, dimethylsulfoxide]
- FITC+ Langerhans cell number (Langerhans cells): no enhancement
- total dendritic cell migration into the lymph node / nonspecific immigration (Langerhans cells): modest stimulatory effect

Compound: Fluorescein isothiocyanate [FITC]
- time required for maximal rate of immigration into the lymph node (Langerhans cells; after topical administration): 48 to 72 h

Compound: CC[C@H](C)[C@H](NC(=O)[C@@H](NC(=O)[C@@H](N)CO)[C@@H](C)CC)C(=O)N[C@@H](CC(N)=O)C(=O)N[C@@H](Cc1ccccc1)C(=O)N[C@@H](CCC(=O)O)C(=O)N[C@@H](CCCCN)C(=O)N[C@@H](CC(C)C)C(=O)O
- inhibiting tumor cell growth (EG7-OVA cells; cutaneous, SIINFEKL (240 :g/ml) in DMSO diluted in PBS, followed in 5 hours by acetone and dibutylphthalate): none of the treatment protocols were effective
- inhibiting tumor cell growth (EG7-OVA cells; cutaneous, SIINFEKL (240 :g/ml) in acetone and dibutylphthalate): none of the treatment protocols were effective
- time by which established tumors were completely eliminated (EG7-OVA cells; cutaneous, SIINFEKL in undiluted DMSO, dibutylphthalate in acetone at same site 5 hr later, Figure 6): ≤ 16 days post-inoculation
- protection against the tumor (EG7-OVA cells; intravaginal topical application, SIINFEKL in acetone and dibutylphthalate, Figure 5): complete protection
- immunity against the EL4 tumor cells (EL4 tumor cells): no immunity

Compound: CC12CCC(CC1=O)C2(C)C (stereo not shown) [C, camphor]
- Total MHC class II^th cells, distance from the positive control, dibutylphthalate (DBP) (Langerhans cells): ≤ 1 standard deviation

Compound: CCCCCCCCCOC(=O)c1ccccc1C(=O)OCCCCCCCCC [DNP, dinonylphthalate]
- Total MHC class II^th cells, distance from the positive control, dibutylphthalate (DBP) (Langerhans cells): ≤ 1 standard deviation
